Source: USRE47689E1, “Compounds for treating spinal muscular atrophy” (PTC Therapeutics, Inc., priority 2011, dated 2019)

Tests used:
Smn protein = Smn protein assay in cultured cells (SMN HTRF); assay type: cell-based, human; details: 48 hours; for maximum fold (Fold) increase of Smn protein: SMA patient fibroblast cells, 7-point concentration data, fold increase relative to vehicle control (SMN HTRF); for EC1.5x (concentration giving 1.5-fold Smn protein increase): SMA Type 1 patient fibroblast cells (GM03813), 7-point concentration curve, SMN HTRF, concentration producing 1.5 times Smn protein vs DMSO vehicle control, read-out: EC1.5x for Smn protein expression
In short: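 Lysates in RIPA with protease inhibitors are incubated overnight at room temperature with HTRF anti-SMN antibodies. EC1.5x is derived from fold increase in ΔF over vehicle.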

[1] = test system: SMN2 minigene (full length SMN2 minigene mRNA containing SMN2 exon 7); experiment: SMN2 minigene mRNA splicing RT-qPCR assay in cultured cells; assay type: cell-based, human; details: Homo sapiens, HEK293-H; HEK293H cells stably transfected with SMN2-A minigene; 24 hours; 7-point concentration curve; 1.5-fold relative to vehicle-treated cells; read-out: EC1.5x for production of full length SMN2 mRNA
In short: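 Read-out: full-length (exon 7-included) SMN2 minigene mRNA by multiplex RT-qPCR with GAPDH, efficiency-corrected (1+E)^−Ct, GAPDH-normalized and divided by vehicle. Stably transfected HEK293H cells, 24 h compound exposure, duplicates per concentration. Value is EC1.5x, reported as star ranges.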

`O=c1oc2cc(OC[C@@H]3CCCN3)ccc2cc1-c1nc2ccccc2s1` [Compound 56, 3-(1,3-benzothiazol-2-yl)-7-[(2S)-pyrrolidin-2-ylmethoxy]-2H-chromen-2-one] was tested, and the “maximum fold (Fold) increase of Smn protein” value (“maximum fold (Fold) increase” for short) (Smn protein) was “* (maximum fold increase of ≤1.2)” and the EC (1.5-fold) [1] was 3 to 30 µM.

With `CCN1CCN(c2ccc3cc(-c4cn5cc(C)nc(C)c5n4)c(=O)oc3c2)CC1C` (stereo not drawn) [Compound 852, 3-(6,8-dimethylimidazo[1,2-a]pyrazin-2-yl)-7-(4-ethyl-3-methylpiperazin-1-yl)-2H-chromen-2-one] the EC1.5x (concentration giving 1.5-fold Smn protein increase) (Smn protein) was < 300 nM, the “maximum fold (Fold) increase” value (Smn protein) was “**** (fold increase between >1.5 and ≤1.65)” and the EC (1.5-fold) [1] was < 0.1 µM.

`Cc1cn2cc(-c3cc4ccc(N5CCN[C@H](C)C5)cc4oc3=O)nc2cn1` [Compound 570, 3-(6-methylimidazo[1,2-a]pyrazin-2-yl)-7-[(3R)-3-methylpiperazin-1-yl]-2H-chromen-2-one] was tested, and the EC1.5x (concentration giving 1.5-fold Smn protein increase) (Smn protein) was < 300 nM, the “maximum fold (Fold) increase” value (Smn protein) was “***** (fold increase >1.65)” and the EC (1.5-fold) [1] was < 0.1 µM.

For `CC1CN(c2ccc3cc(-c4nc5ccccc5o4)c(=O)oc3c2)C(C)CN1` (stereo not drawn) [Compound 86, 3-(1,3-benzoxazol-2-yl)-7-(2,5-dimethylpiperazin-1-yl)-2H-chromen-2-one], the “maximum fold (Fold) increase” value (Smn protein) was “* (maximum fold increase of ≤1.2)” and the EC (1.5-fold) [1] was 3 to 30 µM.

In the case of `CCc1nc(C)cn2cc(-c3cc4ccc(N5CCNCC5)cc4oc3=O)nc12` [Compound 824, 3-(8-ethyl-6-methylimidazo[1,2-a]pyrazin-2-yl)-7-(piperazin-1-yl)-2H-chromen-2-one], the EC1.5x (concentration giving 1.5-fold Smn protein increase) (Smn protein) is reported as < 300 nM, the “maximum fold (Fold) increase” value (Smn protein) is reported as “**** (fold increase between >1.5 and ≤1.65)” and the EC (1.5-fold) [1] is reported as < 0.1 µM.

`Cc1cn2cc(-c3cc4ccc(N5CCN[C@H](C)C5)cc4oc3=O)cnc2n1` [Compound 650, 3-(2-methylimidazo[1,2-a]pyrimidin-6-yl)-7-[(3R)-3-methylpiperazin-1-yl]-2H-chromen-2-one] was tested, and the EC1.5x (concentration giving 1.5-fold Smn protein increase) (Smn protein) was 300 to 1000 nM, the “maximum fold (Fold) increase” value (Smn protein) was “**** (fold increase between >1.5 and ≤1.65)” and the EC (1.5-fold) [1] was < 0.1 µM.

With `CC(=O)O.Cc1ccn2cc(-c3cc4ccc(N(C)C5CCN(Cc6ccccc6)C5)cc4oc3=O)nc2n1` (stereo not drawn) [Compound 377, 7-[(1-benzylpyrrolidin-3-yl)(methyl)amino]-3-(7-methylimidazo[1,2-a]pyrimidin-2-yl)-2H-chromen-2-one acetate] the “maximum fold (Fold) increase” value (Smn protein) was “* (maximum fold increase of ≤1.2)” and the EC (1.5-fold) [1] was 0.3 to 1 µM.

In the case of `Cc1cn2cc(-c3cc4ccc(N5C[C@@H]6C[C@H]5CN6)cc4oc3=O)nc2c(C)n1` [Compound 648, 7-[(1S,4S)-2,5-diazabicyclo[2.2.1]hept-2-yl]-3-(6,8-dimethylimidazo[1,2-a]pyrazin-2-yl)-2H-chromen-2-one], the EC1.5x (concentration giving 1.5-fold Smn protein increase) (Smn protein) is reported as < 300 nM, the “maximum fold (Fold) increase” value (Smn protein) is reported as “***** (fold increase >1.65)” and the EC (1.5-fold) [1] is reported as < 0.1 µM.

In the case of `CSc1nccn2cc(-c3cc4ccc(N5CCN(C)CC5)cc4oc3=O)nc12` [Compound 399, 7-(4-methylpiperazin-1-yl)-3-[8-(methylsulfanyl)imidazo[1,2-a]pyrazin-2-yl]-2H-chromen-2-one], the “maximum fold (Fold) increase” value (Smn protein) is reported as “* (maximum fold increase of ≤1.2)” and the EC (1.5-fold) [1] is reported as 3 to 30 µM.

In the case of `Cc1cn2cc(-c3cc4ccc(N5CCN(C6CC6)CC5)cc4oc3=O)cc2c(C)n1` [Compound 752, 7-(4-cyclopropylpiperazin-1-yl)-3-(1,3-dimethylpyrrolo[1,2-a]pyrazin-7-yl)-2H-chromen-2-one], the EC1.5x (concentration giving 1.5-fold Smn protein increase) (Smn protein) is reported as 300 to 1000 nM, the “maximum fold (Fold) increase” value (Smn protein) is reported as “**** (fold increase between >1.5 and ≤1.65)” and the EC (1.5-fold) [1] is reported as < 0.1 µM.

`Cc1cn2cc(-c3cc4ccc(N5CCN(C)[C@@H](C(C)C)C5)cc4oc3=O)nc2c(C)n1` [Compound 809, 3-(6,8-dimethylimidazo[1,2-a]pyrazin-2-yl)-7-[(3S)-4-methyl-3-(propan-2-yl)piperazin-1-yl]-2H-chromen-2-one] was tested, and the EC1.5x (concentration giving 1.5-fold Smn protein increase) (Smn protein) was 1000 to 3000 nM, the “maximum fold (Fold) increase” value (Smn protein) was “**** (fold increase between >1.5 and ≤1.65)” and the EC (1.5-fold) [1] was 0.3 to 1 µM.

`Cc1cn2cc(-c3cc4ccc(N5CCN(C)CC5)cc4oc3=O)nc2c(C)n1` [Compound 516, 3-(6,8-dimethylimidazo[1,2-a]pyrazin-2-yl)-7-(4-methylpiperazin-1-yl)-2H-chromen-2-one] was tested, and the EC1.5x (concentration giving 1.5-fold Smn protein increase) (Smn protein) was < 300 nM, the “maximum fold (Fold) increase” value (Smn protein) was “***** (fold increase >1.65)” and the EC (1.5-fold) [1] was < 0.1 µM.

With `CCN1[C@H](C)CN(c2ccc3cc(-c4cn5cc(C)ncc5n4)c(=O)oc3c2)C[C@@H]1C` [Compound 797, 7-[(3R,5S)-4-ethyl-3,5-dimethylpiperazin-1-yl]-3-(6-methylimidazo[1,2-a]pyrazin-2-yl)-2H-chromen-2-one] the EC1.5x (concentration giving 1.5-fold Smn protein increase) (Smn protein) was < 300 nM, the “maximum fold (Fold) increase” value (Smn protein) was “**** (fold increase between >1.5 and ≤1.65)” and the EC (1.5-fold) [1] was < 0.1 µM.

In the case of `Cc1cn2cc(-c3cc4c(F)cc(N5CCN(C)[C@@H](C)C5)cc4oc3=O)nc2cn1` [Compound 659, 7-[(3S)-3,4-dimethylpiperazin-1-yl]-5-fluoro-3-(6-methylimidazo[1,2-a]pyrazin-2-yl)-2H-chromen-2-one], the EC1.5x (concentration giving 1.5-fold Smn protein increase) (Smn protein) is reported as < 300 nM, the “maximum fold (Fold) increase” value (Smn protein) is reported as “**** (fold increase between >1.5 and ≤1.65)” and the EC (1.5-fold) [1] is reported as < 0.1 µM.

`Cc1cn2cc(-c3cc4ccc(N5C[C@@H]6CCCN(C)[C@@H]6C5)cc4oc3=O)nc2c(C)n1` [Compound 795, 3-(6,8-dimethylimidazo[1,2-a]pyrazin-2-yl)-7-[(4aS,7aS)-1-methyloctahydro-6H-pyrrolo[3,4-b]pyridin-6-yl]-2H-chromen-2-one] was tested, and the EC1.5x (concentration giving 1.5-fold Smn protein increase) (Smn protein) was < 300 nM, the “maximum fold (Fold) increase” value (Smn protein) was “**** (fold increase between >1.5 and ≤1.65)” and the EC (1.5-fold) [1] was < 0.1 µM.

`Cc1cn2cc(-c3cc4ccc(C5CCN(C6COC6)CC5)cc4oc3=O)nc2cn1` [Compound 878, 3-(6-methylimidazo[1,2-a]pyrazin-2-yl)-7-[1-(oxetan-3-yl)piperidin-4-yl]-2H-chromen-2-one] was tested, and the EC1.5x (concentration giving 1.5-fold Smn protein increase) (Smn protein) was 300 to 1000 nM, the “maximum fold (Fold) increase” value (Smn protein) was “***** (fold increase >1.65)” and the EC (1.5-fold) [1] was < 0.1 µM.

`Cc1cn2cc(-c3cc4ccc(N[C@H]5CCNC5)cc4oc3=O)nc2c(C)n1` [Cpd 563, 3-(6,8-dimethylimidazo[1,2-a]pyrazin-2-yl)-7-[(3S)-pyrrolidin-3-ylamino]-2H-chromen-2-one] was tested, and the EC1.5x (concentration giving 1.5-fold Smn protein increase) (Smn protein) was < 300 nM, the “maximum fold (Fold) increase” value (Smn protein) was “***** (fold increase >1.65)” and the EC (1.5-fold) [1] was < 0.1 µM.

For `Cc1cn2cc(-c3cc4ccc(OCCN5CC[C@H](O)C5)cc4oc3=O)nc2c(C)n1` [Compound 954, 3-(6,8-dimethylimidazo[1,2-a]pyrazin-2-yl)-7-{2-[(3S)-3-hydroxypyrrolidin-1-yl]ethoxy}-2H-chromen-2-one], the EC1.5x (concentration giving 1.5-fold Smn protein increase) (Smn protein) was < 300 nM, the “maximum fold (Fold) increase” value (Smn protein) was “***** (fold increase >1.65)” and the EC (1.5-fold) [1] was < 0.1 µM.

`Cc1cn2cc(-c3cc4ccc(N5CCNCC5)cc4oc3=O)ccc2n1` [Compound 677, 3-(2-methylimidazo[1,2-a]pyridin-6-yl)-7-(piperazin-1-yl)-2H-chromen-2-one] was tested, and the EC1.5x (concentration giving 1.5-fold Smn protein increase) (Smn protein) was < 300 nM, the “maximum fold (Fold) increase” value (Smn protein) was “**** (fold increase between >1.5 and ≤1.65)” and the EC (1.5-fold) [1] was < 0.1 µM.

`Cc1cc2cc(-c3cc4ccc(N5CCN(CC6CC6)CC5)cc4oc3=O)oc2c(C)n1` [Compound 816, 7-[4-(cyclopropylmethyl)piperazin-1-yl]-3-(5,7-dimethylfuro[2,3-c]pyridin-2-yl)-2H-chromen-2-one] was tested, and the EC1.5x (concentration giving 1.5-fold Smn protein increase) (Smn protein) was 300 to 1000 nM, the “maximum fold (Fold) increase” value (Smn protein) was “**** (fold increase between >1.5 and ≤1.65)” and the EC (1.5-fold) [1] was < 0.1 µM.

`Cc1cn2cc(-c3cc4ccc(N5CCC(O)CC5)cc4oc3=O)nc2c(C)n1` [Compound 975, 3-(6,8-dimethylimidazo[1,2-a]pyrazin-2-yl)-7-(4-hydroxypiperidin-1-yl)-2H-chromen-2-one] was tested, and the “maximum fold (Fold) increase” value (Smn protein) was “*** (fold increase between >1.35 and ≤1.5)” and the EC (1.5-fold) [1] was 0.3 to 1 µM.

For `Cc1cc2oc(-c3cc4ccc(N5CCN(C)CC5)cc4oc3=O)cc2c(C)n1` [Compound 832, 3-(4,6-dimethylfuro[3,2-c]pyridin-2-yl)-7-(4-methylpiperazin-1-yl)-2H-chromen-2-one], the “maximum fold (Fold) increase” value (Smn protein) was “* (maximum fold increase of ≤1.2)” and the EC (1.5-fold) [1] was 1 to 3 µM.

In the case of `CN1CCN(c2ccc3cc(-c4ccc5nccn5c4)c(=O)oc3c2)CC1` [Compound 978, 3-(imidazo[1,2-a]pyridin-6-yl)-7-(4-methylpiperazin-1-yl)-2H-chromen-2-one], the “maximum fold (Fold) increase” value (Smn protein) is reported as “** (fold increase between >1.2 and ≤1.35)” and the EC (1.5-fold) [1] is reported as 1 to 3 µM.

For `Cc1cc2sc(-c3cc4ccc(N5CCNCC5)cc4oc3=O)cc2c(C)n1` [Compound 817, 3-(4,6-dimethylthieno[3,2-c]pyridin-2-yl)-7-(piperazin-1-yl)-2H-chromen-2-one], the “maximum fold (Fold) increase” value (Smn protein) was “** (fold increase between >1.2 and ≤1.35)” and the EC (1.5-fold) [1] was < 0.1 µM.

In the case of `CN1CCN(c2ccc3cc(-c4nc5ncccc5o4)c(=O)oc3c2)CC1` [Compound 111, 7-(4-methylpiperazin-1-yl)-3-([1,3]oxazolo[4,5-b]pyridin-2-yl)-2H-chromen-2-one], the “maximum fold (Fold) increase” value (Smn protein) is reported as “** (fold increase between >1.2 and ≤1.35)” and the EC (1.5-fold) [1] is reported as 3 to 30 µM.
